Converted amounts (≈) assume the structure as drawn. Like-named read-outs stand apart in the source and are kept apart here.
Key:
[1] = system: GIST; assay: Phase 1 study, ripretinib 150 mg QD, second-line through fourth-line plus GIST (Example 3): efficacy; assay type: in vivo, human; conditions: for Best response (confirmed only): CR / Best response (confirmed only): PR / Best response (confirmed only): Progressive disease / Best response (confirmed only): Stable disease / ORR, n (95% CI) / PFS, Median: 150 mg QD; for ORR, n (95% CI): CR+PR; for PFS, Median: investigator assessment
Procedure: Efficacy and safety results from the escalation and expansion phases of a phase 1 study for patients with GIST treated at ripretinib 150 mg QD as the starting dose in 28-day cycles are presented. Local, investigator-assessed Response Evaluation Criteria in Solid Tumors (RECIST 1.1) response assessments were performed every 2 cycles, and patients in the expansion cohorts who progressed per RECIST 1.1 were allowed to dose escalate to 150 mg BID.
142 patients with GIST in the escalation and expansion phases were treated at 150 mg QD dose. Number of patients by line of therapy were as follows: 31 2nd line, 28 3rd line, and 83≥4th line patients. 135 patients (95.1%) had KIT-mutant GIST, and 7 patients (4.9%) had PDGFRA-mutant GIST.
For example, the confirmed-only complete response (CR), partial response (PR), stable disease, and progressive disease are presented in Table 4. The objective response rate data in Table 4 relates to the proportion of patients with CR+PR. The median PFS data in Table 4 refers to progression-free survival per investigator assessment, by line of therapy.
In Table 4: ^a64 subjects escalated to 150 mg BID among patients with GIST in the 150 mg QD dose group. CI, confidence interval; CR, complete response; NE, not estimable; ORR, objective response rate; PFS, progression-free survival; PR, partial response; SD, […]. Local (investigator) response assessment.

[2] = PBPK model of ripretinib and DP-5439 (Simcyp Simulator)
Description: (§1) A PBPK model that included a mechanistic absorption model was developed.
Thus, potential auto-induction and auto-inhibition effects were captured within the model.
Single dose (SD) PK data from participants with mild, moderate, and severe HI were used to refine and/or verify the PBPK model. […] Subsequently, the corresponding plasma concentration-time profiles in HI participants were likewise simulated and compared to the observed data.
Predictions of plasma drug concentration-time profiles, clearance and DDIs were performed in the Simcyp Simulator using a population of virtual participants. The default healthy participant population was applied in all simulations involving healthy participants. […] With the exception of demographic data, all parameter values for the healthy participant population were the same as those used for the North European Caucasian population.
For simulations involving cancer participants, the North European Caucasian population was used to accommodate the wider age range observed in this population (19 to 87 years old; median 61 years). Weibull age distribution was applied with alpha and beta values of 5.47 and 66.5 years for male participants and 5.22 and 68.57 years for female participants. Age, height and weight distributions for the simulated virtual participant population were consistent with those from the first-in-human dose-escalation study in cancer patients.
For simulations involving participants with HI, 3 population models have been developed for the Simcyp Simulator and are based on the 3 Child-Pugh categories (CP-A, CP-B and CP-C). […] When reduced hepatic size was also taken into account, overall CYP3A4 expression in CP-A, CP-B and CP-C participants was reduced to 69%, 36% and 20%, respectively, to that of healthy participants.

[3] = system: GIST; assay: Clinical study in second-line through fourth-line plus GIST, ≥100 mg daily (Example 2): efficacy; assay type: in vivo, human
Procedure: Results. Data from 178 GIST patients receiving ripretinib at doses of ≥100 mg daily are noted in Table 2. The table includes investigator-assessed objective response rate (ORR) by best response, disease control rate (DCR) and median progression free survival (mPFS), all of which were determined by Response Evaluation Criteria in Solid Tumors (RECIST) version 1.1.
In Table 2, (1) indicates overall number of patients (n=178) remains the same as prior data presented at ESMO 2018; based on additional data cleaning, one patient from each of 2nd line and 4th/≥4th line were reclassified as 3rd line patients; (2) refers to median treatment durations were: 2nd line=44 weeks, 3rd line=48 weeks, 4th line=46 weeks and ≥4th line=29 weeks; (3) refers to including 60 patients who elected for intra-patient dose escalation from 150 mg QD to 150 mg BID; and (4) refers to the number of patients including 60 patients from 4th line.

[4] = Solubility in buffers; assay type: physicochemical
[5] = Food effect (high-fat meal) on exposure; assay type: in vivo, human; conditions: 150 mg dose of ripretinib
Procedure: The effect of a high-fat breakfast on ripretinib and Compound A exposure was evaluated. A high fat meal consisted of approximately 150, 250, and 500-600 calories from protein, carbohydrate, and fat, respectively. […] The food effect is not considered to be clinically significant based on exposure-response analysis. Therefore, ripretinib may be taken with or without food at approximately same time each day.

[6] = molecular target: CYP2D6 (Homo sapiens, UniProt P10635); assay: Contribution of CYP enzymes to metabolism, in vitro data; assay type: in vitro ADME; conditions: base model, based on in vitro data
CYP2D6, sequence (P10635 whole entry): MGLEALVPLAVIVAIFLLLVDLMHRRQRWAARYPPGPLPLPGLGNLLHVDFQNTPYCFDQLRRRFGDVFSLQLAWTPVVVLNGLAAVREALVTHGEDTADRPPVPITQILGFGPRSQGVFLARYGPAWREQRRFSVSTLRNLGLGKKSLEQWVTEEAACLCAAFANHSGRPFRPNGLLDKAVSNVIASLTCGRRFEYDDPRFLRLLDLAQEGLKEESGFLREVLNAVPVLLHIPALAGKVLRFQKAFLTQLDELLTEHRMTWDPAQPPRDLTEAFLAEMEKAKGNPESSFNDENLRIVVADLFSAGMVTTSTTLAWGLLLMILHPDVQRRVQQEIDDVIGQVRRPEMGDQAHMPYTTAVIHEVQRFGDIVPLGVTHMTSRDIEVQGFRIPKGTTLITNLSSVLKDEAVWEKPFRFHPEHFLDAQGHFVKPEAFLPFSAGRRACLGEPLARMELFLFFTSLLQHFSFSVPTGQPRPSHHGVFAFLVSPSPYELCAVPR
Description: as §1

[7] = system: patients with advanced GIST; assay: Example 1 study: treatment-emergent adverse events, safety; assay type: in vivo, human
Procedure: Patients were randomized 2:1 to either 150 mg of ripretinib or placebo once daily. The primary efficacy endpoint is progression-free survival (PFS) as determined by independent radiologic review using modified Response Evaluation Criteria in Solid Tumors (RECIST). Secondary endpoints as determined by independent radiologic review using modified RECIST include Objective Response Rate (ORR), Time to Tumor Progression (TTP) and Overall Survival (OS).
The safety of ripretinib and the impact of alopecia and palmar-plantar erythrodysesthesia (PPES) on patient-reported outcomes (PROs) of patients treated in the study described in Example 1 herein are described. […] When stratified by alopecia and PPES, patient reported assessments of function, overall health, and overall quality of life were maintained over time.

## CCn1c(=O)c(-c2cc(NC(=O)Nc3ccccc3)c(F)cc2Br)cc2cnc(NC)cc21 [ripretinib]
[1]; 2nd Line (n = 31)
  Best response (confirmed only): CR: 0 n (%)
  Best response (confirmed only): PR: 6 (19.4) n (%)
  Best response (confirmed only): Progressive disease: 4 (12.9) n (%)
  Best response (confirmed only): Stable disease: 21 (67.7) n (%)
  ORR, n (95% CI): 19.4 (7.5, 37.5)
  PFS, Median: 46.4 weeks
[1]; 3rd Line (n = 28)
  Best response (confirmed only): CR: 0 n (%)
  Best response (confirmed only): PR: 4 (14.3) n (%)
  Best response (confirmed only): Progressive disease: 6 (21.4) n (%)
  Best response (confirmed only): Stable disease: 18 (64.3) n (%)
  ORR, n (95% CI): 14.3
  PFS, Median: 36.3 weeks
[1]; ≥4th Line (n = 83)
  Best response (confirmed only): CR: 0 n (%)
  Best response (confirmed only): PR: 6 (7.2) n (%)
  Best response (confirmed only): Progressive disease: 22 (26.5) n (%)
  Best response (confirmed only): Stable disease: 49 (59.0) n (%)
  ORR, n (95% CI): 7.2 (2.7, 15.1)
  PFS, Median: 23.9 weeks
[1]; FIG. 27
  PFS of second and third-line patients with Exons 9, 11, 13 or 17 KIT mutations: comparable PFS
[1]; regardless of line of therapy, FIG. 25
  clinical benefit after dose escalation to 150 mg BID (PFS1 vs PFS2): additional clinical benefit
[2]; 150 mg QD dose
  all predictions relative to observed: ≤ 1.25 fold
[2]; Day 1 and Day 15, except 250-mg QD dose
  predicted mean AUC0-12 and Cmax relative to observed values: ≤ 1.5 fold
[3]; Fourth-Line (n = 60)
  Disease Control Rate at 3 Months: 73%
  Median Progression Free Survival (mPFS): 30 weeks
  Objective Response Rate by Best Response, includes unconfirmed: 15%
  Objective Response Rate, confirmed only: 8%
[3]; Second-Line (n = 37)
  Disease Control Rate at 3 Months: 81%
  Median Progression Free Survival (mPFS): 42 weeks
  Objective Response Rate, confirmed only: 22%
[3]; Second-Line (n = 37), ≥100 mg daily, RECIST 1.1, investigator
  Objective Response Rate by Best Response, includes unconfirmed: 30%
[3]; Third-Line (n = 31)
  Disease Control Rate at 3 Months: 80%
  Median Progression Free Survival (mPFS): 40 weeks
  Objective Response Rate by Best Response, includes unconfirmed: 23%
  Objective Response Rate, confirmed only: 13%
[3]; ≥Fourth-Line (n = 110)
  Disease Control Rate at 3 Months: 66%
  Median Progression Free Survival (mPFS): 24 weeks
  Objective Response Rate by Best Response, includes unconfirmed: 11%
  Objective Response Rate, confirmed only: 7%
[4]
  solubility: pH-dependent solubility
[4]; fassgf or other biorelevant, intestinal buffer (pH 6.5), read-out: solubility
  solubility: 123 µg/mL (≈ 241 µM)
[4]; simulated gastric fluid, gastric buffer (pH 2.0), read-out: solubility
  solubility: 178 µg/mL (≈ 349 µM)
[5]
  AUC0-24h higher with a high-fat meal: 30%
  Cmax higher with a high-fat meal: 22%
[6]
  share of metabolism assigned to CYP2D6: 18%
[7]; female, human, in vivo
  alopecia in females: 56.8%
[7]; human, in vivo
  Grade 3 or 4 TEAE abdominal pain: 7%
  Grade 3 or 4 TEAE hypertension: 7%
  TEAE alopecia (most common TEAE): 51.8%
  patients reporting PPES: 21.2%
  patients with Grade 3 or 4 TEAEs: 42 (49%)
  patients with a TEAE leading to dose interruption: 23.5%
  patients with a TEAE leading to dose reduction: 7.1%
[7]; in vivo
  TEAEs during the crossover period: no safety concerns
  patients with grade 3 PPES: no patients
  serious adverse events of alopecia or PPES: no serious adverse events
[7]; male, human, in vivo
  alopecia in males: 43.2%
[7]; ripretinib arm
  patients with a TEAE leading to death: 5.9%
